Assay results from patent publication US20200199527A1, “METHODS OF MATURATION OF HUMAN SPERMATOGONIUM” (B.G. Negev Technologies & Applications Ltd., at Ben-Gurion …, priority 2017, published 2020).

Tests used:
[1] = tested on: Isolated testicular cells (from azoospermic adult patients); assay: Effect of TNFα on development of spermatogenic markers in vitro in methylcellulose culture system (MCS); assay type: cell-based, human; set-up: key to VASA (pre-meiotic marker) staining / PLZF (pre-meiotic marker) staining / SALL4 (pre-meiotic marker) staining / CREM (meiotic marker) staining / BOULE (meiotic marker) staining / ACROSIN (post-meiotic marker) staining: “+” indicates positive staining for the indicated marker; “−” indicates negative staining for the indicated marker
Excerpt: After an overnight in sperm wash media containing 30% human serum albumin at room temperature (RT), TESE specimen were re-searched for sperm and then collected into the same media and transferred to the present inventor' lab, while TEFNA specimens were transferred to Modified Human Tubal Fluid (HTF) media containing 15% serum protein substitutes and transferred to the present inventor' lab after two days at RT. For cell isolation, biopsies were cut into small pieces of ˜2 mm, and subjected to collagenase type V (2 mg/ml) (Sigma, St. Louis, Mo., USA), DNAse (8 μg/ml) (Sigma) and hyelorunidase (2 mg/ml) (Sigma) in a total volume of 4 ml for 20 minutes in a 32° C. water bath shaker. Cells were precipitated by centrifugation (300×g, 10 minutes) and suspended with 4 ml of Tryple Select (Gibco, Denmark) for 10 minutes in a shaking water bath at 32° C. Cell suspension was centrifuged (300×g, 10 minutes) and the precipitated cells were suspended in 200 μl Roswell Park Memorial Institute (RPMI) (Biological Industries, Beit Haemek, Israel) and counted. Cells were cultured (2×10^4 cells/well/500 μl) in Minimum Essential Medi (MEM) (Biological Industries) which contained sodium bicarbonate (Gibco, UK), 7.5%, L-glutamine (Biological industries) 200 mM, non-essential amino acids (Gibco, UK) 1%, penicillin/streptomycin (Biological Industries) and gentamicin (Biological Industries) (10 mg/ml), and incubated for 2 nights in 24 well plates at 37° C., 5% CO2. The nonadherent cells were collected and cultured (2×10^4 cells/well/500 μl) in methylcellulose (R&D, Minneapolis, USA) (42%) [as a three-dimension (3D) culture system], which contained 33% StemPro-34 medium (Gibco, USA) enriched with: StemPro supplement (2.6%) (Gibco), insulin (25 μg/ml) (Gibco), transferrin (100 μg/ml) (Gibco), putrescin (60 μg/ml) (Gibco), sodium selenite (30 nM) (Gibco), D-glucose (6 mg/ml) (Sigma), pyruvic acid (30 μg/ml) (Sigma), BSA (Millpore, Illkirch, France) (5 mg/ml), L-glutamine (2 mM) (Biological Industries), 2-mercaptoethanol (0.5 μM) (Gibco), MEM vitamin solution (10 μl/ml) (Gibco, UK), MEM non-essential amino acid solution (10 μl/ml) (Gibco, UK), ascorbic acid (100 μM) (Sigma, China), d-biotin (10 μg/ml) (Sigma), 1% KSR (Gibco, UK), 0.5% Pen/Strep (Biological Industries), human rEGF (20 ng/ml) (Biolegend, CA, USA), human rGDNF (10 ng/ml) (Biolegend), human rLIF (10 ng/ml) (Biolegend) and human r-bFGF (10 ng/ml) (Biolegend). Cells were cultured for 1-16 weeks. Every 1-2 weeks (according to the growth and morphology of the cells), we added 50 μl/well of fresh concentrated (×10) enriched StemPro-34 medium to the cell cultures.
Isolated cells were fixed in cold methanol for 20 minutes. The immunostaining process was similar to that mentioned above for testicular tissue immunostaining after the stage of antigen retrieval. Following the removal of the blocking buffer, the first antibodies were added: Polyclonal rabbit anti-mouse SALL4 (Abcam, Cambridge, UK; 1:400), Polyclonal rabbit anti-human VASA (Santa Cruz 1:100), Polyclonal rabbit anti-human CD9 (Santa Cruz; 1:10), Polyclonal goat anti-human OCT4 (Santa Cruz; 1:50), Polyclonal rabbit anti-human α-6-INTEGRIN (Santa Cruz; 1:100), Polyclonal rabbit anti-human GFR-α □(Santa Cruz; 1:50), monoclonal mouse anti-human PLZF (Santa Cruz; 1:100), Polyclonal rabbit anti-human c-KIT (Santa Cruz; 1:50), Polyclonal rabbit anti-human BOULE (Santa Cruz; 1:25), Polyclonal rabbit anti-mouse CREM-1 (Santa Cruz; 1:30), Polyclonal goat anti-human LDH (Santa Cruz; 1:50), Polyclonal goat anti-mouse PROTAMINE (Santa Cruz; 1:20), Polyclonal rabbit anti-human ACROSIN (Santa Cruz; 1:10), monoclonal mouse anti-human Ki67 (Dianova GmbH, Germany; 1:200), monoclonal rabbit anti-human Ki67 (Cell marque; 1:200). After overnight incubation at 4° C., the slides were washed and treated as mentioned above for testicular tissue immunostaining. […]

[2] = tested on: cells isolated from seminiferous tubules of ICR immature (7-day-old) mice; assay: Effect of hormones and retinoic acid on development of mouse spermatogenesis in vitro in methylcellulose culture system (qPCR of markers); assay type: cell-based; conditions: 10^−8 M, 10^−7 M or 10^−6 M added after two weeks of culture, examined after total four weeks, normal immature mice
Experimental: Cells were enzymatically isolated from seminiferous tubules of ICR mice (which were developed by the Institute of Cancer Research, also called CD-1) immature mice (7-day-old mice).
Briefly, cells were cultured (2×10^5 cells/well/500 μl) in MEM medium which contained sodium bicarbonate 7.5%, L-glutamine 200 mM, non-essential amino acids 1%, penicillin/streptomycin and gentamicin 10 mg/ml, and were incubated over 2 nights in 24 wells plate at 37° C., 5% CO2. The nonadherent cells were collected and cultured ([…] cells/well/500 μl) in methylcellulose (42%; R&D, Minneapolis, USA) [as a three-dimension (3D) culture system], which contained the StemPro-34 medium (Gibco, USA) enriched with: 10% KSR (knockout serum replacement, Gibco, USA) and the following growth factors: Glial cell-derived neurotrophic factor (GDNF; 10 ng/ml; Biolegend), Leukemia inhibitory factor (LIF; 10 ng/ml; Biolegend), epidermal growth factors (EGF; 20 ng/ml; Biolegend, CA, USA), bFGF (basic fibroblast growth factor) (10 ng/ml; Biolegend).
Cells were cultured for 4 weeks. Every 1-2 weeks (according to the growth and morphology of the cells) the present inventor added 50 μl/well of fresh concentrated (×10) enriched StemPro-34 medium to the cell cultures. […]

[3] = TNFα 20 pg/ml, after culture (14.5 Ws) in MCS, patient 1, immunofluorescence staining

| Molecule | differentiation of the pre-meiotic cells to meiotic cells that express CREM ([1]; TNFα 20 pg/ml, patient #1, compared to CT (did not induce CREM)) | growth of premeiotic cells VASA and PLZF, meiotic cells (Boule) and postmeiotic cells (acrosin positive cells) ([1]; TNFα 20 pg/ml, patient #1, versus control (CT)) | ACROSIN (post-meiotic marker) staining [1, 3] | BOULE (meiotic marker) staining [1, 3] | CREM (meiotic marker) staining [1, 3] | PLZF (pre-meiotic marker) staining [1, 3] | SALL4 (pre-meiotic marker) staining [1, 3] | VASA (pre-meiotic marker) staining [1, 3] | development of colonies in MCS ([1]; in the presence of TNFα) | expression of the meiotic/post-meiotic marker ACROSIN [2] |
| --- | --- | --- | --- | --- | --- | --- | --- | --- | --- | --- |
| TNFα | induced the differentiation | maintained/induced growth | + | + | + | + | − | + | colonies were developed |  |
| C[C@]12CC[C@H]3[C@@H](CCC4=CC(=O)CC[C@@]43C)[C@@H]1CC[C@@H]2O [testosterone] |  |  |  |  |  |  |  |  |  | increased |
